Measured values as given in patent publication US12472140B2, “Composition and method for transdermal delivery of cannabidiol (CBD) and tetrahydrocannabinol (THC)” (Ovation Science Inc., priority 2020, dated 2025).

Tests used:
[1] = cited from earlier work
[2] = Release of CBD and THC from the composition, effect of adding surfactant; format: physicochemical; details: for ratio of release of CBD and THC: numerically THC/CBD
Description: Addition of surfactant can assist in release of CBD and THC from the composition.

[3] = Six-hour Franz Cell study of skin penetration by CBD and THC; details: for penetration of CBD relative to THC: at 6 hours
Solubility = details: polyvinylpyrrolidone polymers with C16, C20, C30 side chains
[4] = oral doses of 15-20 mg; cited from earlier work
[5] = Example 1, penetrant increased from 1% to 3%
[6] = Example 3, terpene penetrant increased from 1% to 3%

| SMILES | solubility in aqueous buffers [1] | solubility in organic solvents [1] | release from the composition ([2]; after addition of surfactant) [%] | release from the composition ([2]; before addition of surfactant) [%] | penetration of CBD relative to THC ([3]; Example 1, 1:1 CBD:THC formulation) [times] | penetration [3, 5] [%] | penetration of CBD relative to THC ([3]; Example 3, 1:1 CBD:THC formulation) [times] | actual (penetration) weight ratio of CBD:THC ([3]; Example 3, formulated weight ratio 1:1 CBD:THC) | penetration [3, 6] [%] | solubility in hydrophobic polymer delivery system / polymer complexes (Solubility) | effect on cancer pain [4] | ratio of release of CBD and THC ([2]; after addition of surfactant) | ratio of release of CBD and THC ([2]; before addition of surfactant) |
| --- | --- | --- | --- | --- | --- | --- | --- | --- | --- | --- | --- | --- | --- |
| C=C(C)[C@@H]1CCC(C)=C[C@H]1c1c(O)cc(CCCCC)cc1O [CBD, cannabidiol] | sparingly soluble | readily soluble | 30.2 | 4.3 | ~4 | 5.8 | ~2 | 1.98 | 5.8 | readily soluble |  |  |  |
| CCCCCc1cc(O)c2c(c1)OC(C)(C)[C@H]1CCC(C)=C[C@H]21 [THC, Δ^9-tetrahydrocannabinol] | sparingly soluble | readily soluble | 21.7 | 3 |  | 3.2 |  |  | 3.2 | readily soluble | decreased cancer pain comparable to 120 mg of codeine | 0.72 | 0.7 |
